According to US20200093801A1, “NEW METHODS FOR THE TREATMENT OF MULTIPLE SCLEROSIS” (Novartis AG, priority 2017, published 2020):

Test system: Cuprizone-Induced Demyelination in Mice
Assay: Cuprizone-induced demyelination in mice at 20 mg/kg and 60 mg/kg, MRI
Format: in vivo, Mice (C57BL/6J)
Text: Studies described below were approved by the Swiss Cantonal Veterinary Authority of Basel City, Switzerland, under the license number 2711. Mice (C57BL/6J) were commercially purchased from Charles River Laboratories, Germany or obtained from Novartis Pharma AG breeding colonies (8-9 weeks old, females). All the animals were allowed to adapt for 7 days prior the start of the experiment and housed in IVC racks (max. 4 mice/XJ Type cage). The animals were given access to food and water ad libitum. Animals were treated with cuprizone for 5 weeks. Cuprizone (Bis(cyclohexanone)oxaldihydrazone, Sigma-Aldrich) was mixed into rodent food pellets (0.2% w/w) by Provimi Kliba AG, Switzerland. Therapeutic treatment of animals after cuprizone was performed for 2 weeks on normal food with 20 and 60 mg/kg of BLZ945, qd, p.o. 10 ml/kg. BLZ945 was prepared in vehicle consisting of 0.5% methylcellulose in water and 0.1% Tween-80. Before killing 3 h after last BLZ945 dosing animals were perfused transcardially by phosphate-buffered saline (PBS), brains isolated and fixed in 4% paraformaldehyde (PFA) for 48 h at 4° C.
Measurements were performed with a Biospec 70/30 spectrometer (Bruker Medical Systems, Ettlingen, Germany) operating at 7 T. The operational software of the scanner was Paravision 5.1 (Bruker). Images were acquired from anesthetized, spontaneously breathing animals using a mouse brain circularly polarized coil (Bruker, Model 1P T20063V3; internal diameter 23 mm) for radiofrequency excitation and detection; neither cardiac nor respiratory triggering was applied. Following a short period of introduction in a box, animals were maintained in anesthesia with 1.5% isoflurane (Abbott, Cham, Switzerland) in oxygen, administered via a nose cone. During MRI signal acquisitions, animals were placed in prone position in a cradle made of Plexiglas, the body temperature was kept at 37±1° C. using a heating pad, and the respiration was monitored.
A T2-weighted, two-dimensional multislice RARE (Rapid Acquisition with Relaxation Enhancement) sequence (Hennig et al., 1986) was used for determining the anatomical orientation and for evaluating signal intensities. This was followed by a two-dimensional multislice gradient-recalled FLASH (Fast Low-Angle Shot) acquisition (Haase et al., 1986) for assessment of MTR. As both sequences had the same anatomical parameters, the choice of the regions-of-interest for evaluations was performed on the RARE images and then transferred to the FLASH images. The parameters of the acquisitions were the following: (a) RARE sequence: effective echo time 80 ms, repetition time 3280 ms, RARE factor 16, 12 averages, field of view 20×18 mm^2, matrix size 213×192, pixel size 0.094×0.094 mm^2, slice thickness 0.5 mm, 15 adjacent slices. Hermite pulses of duration/bandwidth 1 ms/5400 Hz and 0.64 ms/5344 Hz were used for radiofrequency excitation and refocusing, respectively. Fat suppression was achieved by a gauss512 pulse of 2.61 ms/1051 Hz duration/bandwidth followed by a 2-ms-long gradient spoiler. The total acquisition time was of 7 min 52.3 s; (b) FLASH sequence: echo time 2.8 ms, repetition time 252.8 ms, 4 averages, field of view 20×18 mm^2, matrix size 213×192, pixel size 0.094×0.094 mm^2, slice thickness 0.5 mm, 15 adjacent slices. A hermite pulse of 0.9 ms/6000 Hz duration/bandwidth and flipangle 30° was used for radiofrequency excitation. MTR contrast was introduced by a gauss pulse of 15 ms/182.7 Hz duration/bandwidth applied with a radiofrequency peak amplitude of 7.5 μT and an irradiation offset of 2500 Hz. The acquisition was then repeated with the same parameters but without the introduction of the MTR contrast. MTR was then computed using the formula MTR=(S0−SMTR)/S0, where S0 and SMTR represent respectively the signal intensities in the FLASH acquisitions without and with the introduction of the MTR contrast. The total acquisition time for both data sets was of 6 min 31.6 seconds.

[1] = 60 mg/kg p.o. qd, therapeutic mode after 5 weeks cuprizone
[2] = 20 and 60 mg/kg p.o. qd, 2-week therapeutic treatment after 5 weeks 0.2% cuprizone, FIG. 9 legend

## CNC(=O)c1cc(Oc2ccc3nc(N[C@@H]4CCCC[C@H]4O)sc3c2)ccn1 [BLZ945, 4-(2-((1R,2R)-2-hydroxycyclohexylamino)benzothiazol-6-yloxy)-N-methylpicolinamide]
[1]
  Remyelination by MRI, corpus callosum/external capsule: significantly enhanced remyelination
  Remyelination by MRI, cortex: significantly enhanced remyelination
  Remyelination by MRI, striatum: only a trend
[2]
  MRI contrast in corpus callosum: not corpus callosum
  MRI contrast in cortex: reduces MRI contrast
  MRI contrast in striatum: reduces MRI contrast
Lower doses (20 and 60 mg/kg), short-term treatment for only 1 week, 5-week cuprizone model
  Remyelination as detected by MRI: beneficial effects on remyelination
